Columns and labels:
TrkB = biological target: T1, TrkB (Rattus norvegicus, UniProt Q63604); assay: Competition binding with biotinylated R,R-HNK; conditions: ext fig 1g
T1 construct: expressed in transfected cells; host or cells: HEK293T
Method: Binding assays were performed as previously described with minor modifications. […] Samples from mouse embryo (E18) brains were also lysed, vortexed, sonicated and centrifuged for binding assays. Plates were then washed with PBS. […] For the competition binding assays with biotinylated R,R-HNK, the amino-biotinylation of R,R-HNK was performed using a commercial kit (Thermo Scientific, EZ-Link NHS-PEG4 Biotinylation Kit, 21455) and the reaction monitored by MS. A mixture of biotinylated R,R-HNK (10 µM) and unlabeled compounds (1 pM to 10 µM) in PBS was added to the 96-well plates containing the immunoprecipitated TrkB and incubated for 1 h at room temperature. […] Luminescence was determined via streptavidin conjugated with horseradish peroxidase (HRP; Thermo Fisher Scientific, 21126; 1:5,000, 1 h at room temperature) in reaction with the Pierce ECL substrate (Thermo Fisher Scientific, 32106). Luminescence from blank wells that contained all reagents but the sample lysates was used to determine nonspecific binding. To obtain the binding curves, results from binding assays were fitted to the equation of specific binding with Hill slope from GraphPad Prism 9.2. To calculate koff values, results were fitted to the equation of dissociation of one phase exponential decay from GraphPad Prism 9.2.

TrkB (WT) dimerization = biological target: T2, TrkB (WT) dimerization (Rattus norvegicus, UniProt Q63604); assay: Split-luciferase PCA of TrkB dimerization in N2a cells; type: cell-based; conditions: for Group mean (Mean 2; Control:Vehicle = 100), fig 4f: n=8; for Group mean (Mean 2; Vehicle:vehicle = 100), fig 4d: n=20; for TrkB dimerization time course, group mean (time 0 = 100): TRKB.wt; for TrkB dimerization: WT TrkB, N2a cells, 1 nM to 1 µM; for TrkB dimerization (PCA), group mean (vehicle = 100): WT; for Group mean (Mean 2; Vehicle:Vehicle = 100), fig 4e: n=48
T2 construct: expressed in transfected cells; host or cells: N2a
T2 sequence (Q63604 32-821): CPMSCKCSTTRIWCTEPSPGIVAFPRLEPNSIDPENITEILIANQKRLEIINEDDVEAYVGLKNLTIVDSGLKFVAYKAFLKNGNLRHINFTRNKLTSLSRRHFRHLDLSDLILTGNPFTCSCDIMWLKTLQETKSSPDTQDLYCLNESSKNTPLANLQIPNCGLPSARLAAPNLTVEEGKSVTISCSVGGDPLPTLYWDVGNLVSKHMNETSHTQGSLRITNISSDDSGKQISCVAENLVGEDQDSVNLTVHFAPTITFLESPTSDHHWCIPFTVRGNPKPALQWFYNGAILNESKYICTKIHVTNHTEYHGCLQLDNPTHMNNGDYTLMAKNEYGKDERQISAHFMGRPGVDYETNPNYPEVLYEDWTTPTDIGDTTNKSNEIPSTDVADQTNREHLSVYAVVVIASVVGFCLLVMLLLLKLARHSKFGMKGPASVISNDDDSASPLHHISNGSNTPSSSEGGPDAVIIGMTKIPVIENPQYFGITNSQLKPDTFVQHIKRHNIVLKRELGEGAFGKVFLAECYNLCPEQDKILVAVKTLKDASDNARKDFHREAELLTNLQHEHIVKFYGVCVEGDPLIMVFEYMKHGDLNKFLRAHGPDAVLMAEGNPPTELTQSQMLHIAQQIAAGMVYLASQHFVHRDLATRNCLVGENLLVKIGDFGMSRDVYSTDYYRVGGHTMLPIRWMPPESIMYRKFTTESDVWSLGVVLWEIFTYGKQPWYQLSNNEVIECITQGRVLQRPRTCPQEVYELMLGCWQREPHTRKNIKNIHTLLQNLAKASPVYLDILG
T2 sequence (Q63604 32-821): as above
Method: Ketanserin, M100907 and TRKB.FC were added to the media 10 min before treatment. The PCA method was performed as previously described[11],[75],[76]. Split humanized Gaussia princeps luciferase (hGLuc) was cloned on the C-terminus of the reporter proteins TrkB (WT and Y433F) and lipid raft Fyn. If the reporter proteins that carry complementary halves of the luciferase interact, the enzyme can refold in its functional conformation and, upon addition of its substrate, produce luminescence proportionally to the amount of reporter proteins interacting at a given time. N2a cells were seeded in 96-well plates with opaque walls and transparent bottom (PerkinElmer, ViewPlate 96). Cells were transfected with Lipofectamine 2000 according to the manufacturer’s instructions 24 h post-plating with the PCA pair plasmids: phGLuc(1C)-TrkB(WT) or the mutant phGLuc(1C)-TrkB(Y433F) and phGLuc(2 C)-TrkB(WT) for the dimerization experiments; phGLuc(1C)-lipid raft Fyn and phGLuc(2C)-TrkB(WT) or phGLuc(2C)-TrkB(Y433F) for the lipid raft localization experiments. Forty-eight hours post transfection, cells were treated (40 min, 37 °C) in phenol red-free Dulbecco’s modified Eagle medium without serum. […] The PCA signal was detected with the substrate for the luciferase, native coelenterazine, which was injected into each well directly in the plate reader at a final concentration of […].

[1] = biological target: T3, TrkB:PLCγ1 colocalization (Rattus norvegicus, UniProt Q63604); assay: dSTORM/TIRF single-molecule colocalization in dendritic spines of hippocampal neurons; type: cell-based; conditions: 100 nM, 1 h; for Manders colocalization coefficient, group mean (5b) / Manders colocalization coefficient, group mean (5c): averaged per neuron; for Manders colocalization coefficient, group mean (5b): vehicle 0.2835; for Manders colocalization coefficient, group mean (5c): vehicle 0.3968
T3 construct: endogenous in cells; host or cells: rat hippocampal neuronal cultures (DIV21)
T3 sequence (Q63604 32-821): as above
Method: Then, dishes were fixed with 4% paraformaldehyde (PFA) containing 0.1 µm TetraSpeck beads (Invitrogen, T7279; 1:100). After washing with PBS, dishes were incubated with the blocking buffer (0.1% Triton X-100, 0.05% Tween-20, 10% normal donkey serum, 1% BSA and 0.1% gelatin in PBS) for 1 h at room temperature. Next, dishes were incubated with goat anti-TrkB (R&D Systems, AF1494; 1:100) and rabbit anti-PLCγ1 (Cell Signaling Technologies, 5690S; 1:100) primary antibodies diluted in detergent-free blocking buffer overnight at 4 °C. After washing with PBS, dishes were incubated with Alexa Fluor 647-conjugated donkey anti-goat (Invitrogen, A32849; 1:500) and CF568-conjugated donkey anti-rabbit (Biotium, 20098; 1:500) secondary antibodies in PBS. Dishes were washed and stored in PBS until imaging. For dSTORM/TIRF, we used fresh blinking buffer (0.5 mg ml^−1 glucose oxidase, 40 µg ml^−1 catalase, 10% glucose, 10 mM NaCl, 10 mM cysteamine and 50 mM Tris–HCl, pH 8.0). We used a Nikon Eclipse Ti-E N-STORM/TIRF microscope equipped with an ApoTIRF 100×/1.49 numerical aperture (NA) objective, a Perfect Focus System for Z focus stabilization, an Andor iXon + 897 back-illuminated EMCCD camera (512 × 512), laser lines 405 nm (100 mW), 561 nm (150 mW) and 647 nm (300 mW) and a 405/488/561/647 nm laser quad band filter cube. Image acquisition was performed with the central 256 × 256 pixels and a total of 20,000 frames (exposure time of 15 ms) for both channels using the NIS-Elements Advanced Research software (Nikon). The 405 nm laser was progressively raised to maintain a constant number of localizations per frame. After chromatic aberration correction by correlation with the fluorescent bead fiducials, fitting of the blinking events to build the single-molecule localization coordinate map and drift correction were performed using the Huygens Localizer 21.04 software (Scientific Volume Imaging). Before identifying particles, the first 512 frames of each channel were discarded, a temporal filter length (factor 30) was applied to determine background signal, and data were prefiltered through the standard deviation of a Gaussian filter (σ = 1.0). Next, a threshold calculated from the standard deviation of unfiltered data was multiplied by a factor of 0.75 for the red and 1.5 for the far-red channels and applied to distinguish particles from the background. Pixels from filtered data with values larger than the threshold were considered as candidates for single-molecule localizations. Pixels in filtered data with higher values than surrounding pixels were detected as local maxima. The least-squares fitting was applied for subpixel localization of detected particles, with a fixed full width at half maximum of the Gaussian point spread function of 256 nm. Finally, the resulting single-molecule localization coordinate maps were analyzed with Coloc-Tesseler 1.0 (ref. [79]) by an experimenter blinded to treatment to compute the Manders colocalization coefficients of TrkB (M^TrkB) and PLCγ1 (M^PLCγ1) in dendritic spines on the basis of their overlapping Voronoi diagrams.

T1 sequence (Q63604 32-821): as above

Row | Compound | K (one phase decay, best-fit) (TrkB) | Plateau (one phase decay, best-fit) (TrkB) | Span (one phase decay, best-fit) (TrkB) | Tau (one phase decay, best-fit) (TrkB) | Y0 (one phase decay, best-fit) (TrkB) | TrkB dimerization (TrkB (WT) dimerization) | TrkB dimerization (PCA), group mean (vehicle = 100) (TrkB (WT) dimerization; 1nM) | TrkB dimerization (PCA), group mean (vehicle = 100) (TrkB (WT) dimerization; 10nM) | TrkB dimerization (PCA), group mean (vehicle = 100) (TrkB (WT) dimerization; 100nM) | TrkB dimerization (PCA), group mean (vehicle = 100) (TrkB (WT) dimerization; 1uM) | TrkB:PLCγ1 colocalization in dendritic spines [1] | Manders colocalization coefficient, group mean (5b) [1] | Manders colocalization coefficient, group mean (5c) [1] | also measured
1 | CCN(CC)C(=O)C1C=C2c3cccc4[nH]cc(c34)CC2N(C)C1 (stereo not shown) [LSD, lysergic acid diethylamide] | 638387713 | 36.42 | 48.28 | 1.57E-09 | 84.7 | fast and long-lasting increase in dimerization | 126.2 | 166.6 | 191.5 | 201.7 | increase TrkB:PLCγ1 colocalization in dendritic spines | 0.6227 | 0.6899 | potentiation of BDNF effect on TrkB dimerization (TrkB (WT) dimerization; BDNF 0.1 ng ml^−1): potentiates the effects of very low concentrations of BDNF; Group mean (Mean 2; Control:Vehicle = 100), fig 4f (TrkB (WT) dimerization; LSD 1nM with BDNF 0.1ng/ml): 198.9; Group mean (Mean 2; Vehicle:vehicle = 100), fig 4d (TrkB (WT) dimerization; LSD 1 nM with M100907): 146.3; Group mean (Mean 2; Control:Vehicle = 100), fig 4f (TrkB (WT) dimerization; LSD 1nM, Vehicle (no BDNF)): 131.4; Group mean (Mean 2; Vehicle:vehicle = 100), fig 4d (TrkB (WT) dimerization; LSD 1 nM, Vehicle (no M100907)): 129.7; Group mean (Mean 2; Vehicle:vehicle = 100), fig 4d (TrkB (WT) dimerization; LSD 10 nM with M100907): 148; Group mean (Mean 2; Vehicle:vehicle = 100), fig 4d (TrkB (WT) dimerization; LSD 10 nM, Vehicle (no M100907)): 146.6; Group mean (Mean 2; Vehicle:vehicle = 100), fig 4d (TrkB (WT) dimerization; LSD 100 nM with M100907): 153.7; Group mean (Mean 2; Vehicle:vehicle = 100), fig 4d (TrkB (WT) dimerization; LSD 100 nM, Vehicle (no M100907)): 151.3; Group mean (Mean 2; Vehicle:vehicle = 100), fig 4d (TrkB (WT) dimerization; LSD 1 µM with M100907): 177.5; Group mean (Mean 2; Vehicle:vehicle = 100), fig 4d (TrkB (WT) dimerization; LSD 1 µM, Vehicle (no M100907)): 148.9; TrkB dimerization time course, group mean (time 0 = 100) (TrkB (WT) dimerization; time 15): 195; TrkB dimerization time course, group mean (time 0 = 100) (TrkB (WT) dimerization; time 60): 250.1; TrkB dimerization time course, group mean (time 0 = 100) (TrkB (WT) dimerization; time 120): 213; TrkB dimerization time course, group mean (time 0 = 100) (TrkB (WT) dimerization; time 240): 184.6; TrkB dimerization time course, group mean (time 0 = 100) (TrkB (WT) dimerization; time 480): 101; Group mean (Mean 2; Vehicle:Vehicle = 100), fig 4e (TrkB (WT) dimerization; treatment alone (other factor Vehicle)): 209.8; Group mean (Mean 2; Vehicle:Vehicle = 100), fig 4e (TrkB (WT) dimerization; with TrkB.FC): 119.5
2 | COc1cccc([C@H](O)C2CCN(CCc3ccc(F)cc3)CC2)c1OC [M100907] | – | – | – | – | – | – | – | – | – | – | – | – | – | Group mean (Mean 2; Vehicle:vehicle = 100), fig 4d (TrkB (WT) dimerization; M100907 alone (M100907:vehicle)): 100; effect of pretreatment on LSD- and BDNF-induced TrkB dimerization (TrkB (WT) dimerization; ketanserin 100 nM, M100907 100 nM or TrkB.FC 200 ng ml^−1, 10 min before): fails to prevent the effects of LSD and BDNF on TrkB dimerization
3 | CN(C)CCc1c[nH]c2cccc(O)c12 [PSI, psilocin] | 89050556 | 38.6 | 50.23 | 1.12E-08 | 88.84 | fast and long-lasting increase in dimerization | 146 | 133.7 | 150.6 | 166.1 | increase TrkB:PLCγ1 colocalization in dendritic spines | 0.5082 | 0.7477 | –

Source: article PMC10244169, “Psychedelics promote plasticity by directly binding to BDNF receptor TrkB” (Nature Neuroscience, 2023)
